Test results taken from patent US10323007B1, “N2N N4-disubstituted quinazoline-2,4-diamines and uses thereof” (University of South Florida, priority 2016, dated 2019).
≈ marks a conversion by molar mass, not a printed value. Read-outs that look alike come from different tables or passages of the source.

What was measured:
A. baumannii 1649 [1] = assay: minimal bactericidal concentration (MBC) assay, strain 1649; type: cell-based; conditions: Acinetobacter baumannii, Table 8, read-out: MBC90 1649
Text: (§1) Lead quinazolines 4, 5, 26, 29, 27, and 30 were selected to be further evaluated for antimicrobial effects. The first assay utilized was a minimal bactericidal concentration (MBC) assay, to assess whether leads compounds were bacteriostatic or bactericidal. The six lead agents were screened to identify their MBC90 towards each of the six A. baumannii isolates used in the SAR studies (Table 8), however for simplicity only the representative data for isolate 1646 is detailed below (Table 6). […] Further to this, we were able to obtain complete eradication of bacterial growth for these two compounds at 1 μM for 24 and 5 μM for 25.
(§2) MIC and MBC assays were performed in this study as documented by us previously.^17,23,24,25 The A. baumannii strains used are detailed in Table 7.

A. baumannii 1646 [2] = assay: minimal bactericidal concentration (MBC) assay, strain 1646; type: cell-based, Acinetobacter baumannii
Outline: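 MBC90 determined against A. baumannii clinical isolates to distinguish bactericidal from bacteriostatic activity, following the group's previously published MIC/MBC protocol.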

[3] = tested on: A. baumannii 1652 biofilm; assay: biofilm eradication determination assay, strain 1652; type: cell-based, Acinetobacter baumannii; conditions: 90% biofilm eradication, Table 8
Procedure: (§3) These assays were performed as described by us previously,^26,24 as follows. Each of the A. baumannii strains were grown overnight in Mueller Hinton Broth (MHB). The next day these were used to seed fresh MHB to an OD600 of 0.5, with 150 μL then added to the wells of a 96 well plate and grown for 24 hours at 37° C. After 24 hours, the planktonic bacteria were carefully removed and fresh MHB was added with increasing concentrations of lead quinazolines. After incubation at 37° C. for 24 hours, planktonic cells were removed and biofilms were washed three times with phosphate buffered saline (PBS). Biofilms were then resuspended in PBS and plated for cell viability on tryptic soy agar. Biofilm recovery was assessed compared to no drug controls, and determined as percent eradication. This was used to determine MBEC90 values (Minimal Biofilm Eradication Concentration), where the viability of cells within the biofilm was reduced by 90%.

A. baumannii 1649 [4] = assay: MIC assay, strain 1649; type: cell-based, Acinetobacter baumannii; conditions: Acinetobacter baumannii, strain 1649
Procedure: as §2

[5] = tested on: A. baumannii 1646 biofilm; assay: biofilm eradication determination assay, strain 1646; type: cell-based, Acinetobacter baumannii
Procedure: as §3

[6] = tested on: A. baumannii 1403 biofilm; assay: biofilm eradication determination assay, strain 1403; type: cell-based, Acinetobacter baumannii; conditions: 90% biofilm eradication, Table 8
Procedure: as §3

human HepG2 cells = type: cell-based
Procedure: Cytotoxicity assays were performed using human HepG2 cells (human liver epithelial with hepatocellular carcinoma), as described by us previously.^17,24 Cells were cultured in Dulbecco's modified eagle medium (DMEM), supplemented with 10% fetal bovine serum and 1% penicillin-streptomycin for 3 days at 37° C. and 5% CO2. Cells were then diluted to 1×10^5 ml^−1 using fresh DMEM and added to 96 well tissue culture plates at a volume of 100 μL. Plates were incubated for 24 hours at 37° C. and 5% CO2, allowing the cells to adhere to the plastic. […] Plates were then incubated for 48 hours at 37° C. and 5% CO2. After 48 hours the DMEM was removed and 100 μL of new media was added containing MTT (3-(4, 5-dimethylthiazol-2-yl)-2, 5-diphenyltetrazolium bromide), followed by incubation for four hours at 37° C. and 5% CO2. […] Lead compounds were solvated in 100% DMSO for these studies, which served as the negative control. LD50 values were determined for each compound by comparison to vehicle only controls.

A. baumannii 1403 [7] = assay: MIC assay, strain 1403; type: cell-based, Acinetobacter baumannii; conditions: Acinetobacter baumannii, strain 1403
Procedure: as §2

A. baumannii 1403 [8] = assay: minimal bactericidal concentration (MBC) assay, strain 1403; type: cell-based; conditions: Acinetobacter baumannii, Table 8, read-out: MBC90 1403
Text: as §1, §2

A. baumannii 1646 [9] = assay: MIC assay, strain 1646; type: cell-based, Acinetobacter baumannii; conditions: Acinetobacter baumannii
Procedure: as §2

A. baumannii 1652 [10] = assay: minimal bactericidal concentration (MBC) assay, strain 1652; type: cell-based; conditions: Acinetobacter baumannii, Table 8, read-out: MBC90 1652
Text: as §1, §2

[11] = tested on: A. baumannii 1650 biofilm; assay: biofilm eradication determination assay, strain 1650; type: cell-based, Acinetobacter baumannii; conditions: 90% biofilm eradication, Table 8
Procedure: as §3

[12] = tested on: A. baumannii 1649 biofilm; assay: biofilm eradication determination assay, strain 1649; type: cell-based, Acinetobacter baumannii; conditions: 90% biofilm eradication, Table 8
Procedure: as §3

A. baumannii 1651 [13] = assay: MIC assay, strain 1651; type: cell-based, Acinetobacter baumannii; conditions: Acinetobacter baumannii, strain 1651
Procedure: as §2

[14] = tested on: A. baumannii 1651 biofilm; assay: biofilm eradication determination assay, strain 1651; type: cell-based, Acinetobacter baumannii; conditions: 90% biofilm eradication, Table 8
Procedure: as §3

A. baumannii 1651 [15] = assay: minimal bactericidal concentration (MBC) assay, strain 1651; type: cell-based; conditions: Acinetobacter baumannii, Table 8, read-out: MBC90 1651
Text: as §1, §2

A. baumannii 1650 [16] = assay: minimal bactericidal concentration (MBC) assay, strain 1650; type: cell-based; conditions: Acinetobacter baumannii, Table 8, read-out: MBC90 1650
Text: as §1, §2

A. baumannii 1652 [17] = assay: MIC assay, strain 1652; type: cell-based, Acinetobacter baumannii; conditions: Acinetobacter baumannii, strain 1652
Procedure: as §2

A. baumannii strain 1403 = type: cell-based, Acinetobacter baumannii; conditions: serial passage, 8 days, start 0.5× MIC
Procedure: An important attribute of novel antibiotics is the ability to fend off the development of resistance towards their effects. To assess this capacity, A. baumannii strains were incubated overnight with 0.5× MIC of each of the frontrunners. The next day cells were washed and used to inoculate fresh media that contained a two-fold increase in drug. This was repeated for a total of 8 days, alongside sulfamethoxazole (SMX) and trimethoprim (TMP) controls, both of which target the same pathway as our lead agents (FIG. 2).
In order to test potential resistance towards the quinazolines, a serial passage assay was performed alongside control compounds (Sulfamethoxazole and Trimethoprim), as described by us previously.^24 A. baumannii strain 1403 was grown overnight in LB media at 37° C. The next day cultures were diluted 1:100 in fresh media and seeded into a 96-well plate. Lead quinazolines or control agents were added to respective wells at half MIC concentrations. […] These were then grown overnight, and the procedure repeated for a total of eight days.

A. baumannii 1650 [18] = assay: MIC assay, strain 1650; type: cell-based, Acinetobacter baumannii; conditions: Acinetobacter baumannii, strain 1650
Procedure: as §2

[19] = tested on: A. baumannii dihydrofolate reductase (DHFR) enzyme; assay: tetrahydrofolic acid in vitro rescue assay; type: cell-based; conditions: tetrahydrofolic acid 0-225 μM; 24 hours incubation
Procedure: To evaluate the effect quinazolines have on DHFR reduction of dihydrofolic acid, a tetrahydrofolic acid assay was performed as described by us previously.^17 A. baumannii strain 1403 was grown overnight in LB, and then diluted 1:1000 into fresh media. These cultures were then seeded into a sterile 96-well plate with tetrahydrofolic acid added at concentrations ranging from 0 to 225 μM. […] MICs were determined and used to assess whether the addition of tetrahydrofolic acid rescued A. baumannii growth from quinazoline inhibition. Assays were repeated in triplicate, alongside trimethoprim and sulfamethoxazole controls.

A. baumannii 1646 [20] = assay: murine model of lethal peritonitis; type: in vivo, mice; conditions: 30 mg kg^-1 intraperitoneal, one hour post challenge, 5 days
Procedure: As a final assessment, we used a murine model of lethal A. baumannii infection to determine the efficacy of quinazolines in vivo. This was performed using frontrunner 5, which had the most promising properties from all of our biological testing. Accordingly, mice were inoculated with a lethal dose of A. baumannii via intraperitoneal injection on the right side of the abdomen. One hour post challenge, mice were treated with an intraperitoneal injection of 2 mg kg^−1 of frontrunner 5 on the left side of the abdomen. As a control, we also performed similar testing using 30 mg kg^−1 of tigecycline, which we already know our test strain to be susceptible to in vitro.
Characteristics of pre-moribund state include: hunched posture, rapid, shallow and/or labored breathing, ruffled fur, lethargy, failure to respond to stimuli, soiled anogenital area, paralysis, paresis, head tilt, circling, vocalizations, non-purposeful movements, and/or were unable to eat or drink. Those mice reaching this state prior to the completion of the 5-day infection period were euthanized. The number of mice surviving between control and treatment groups was compared and analyzed for statistical significance using a log-rank (Mantel-Cox) test.

Procedure for human red blood cells: A hemolysis assay was performed using whole human blood (Bioreclamation), as described previously.^24 Briefly, human red blood cells (hRBCs) were resuspended in 20% v/v 1×HA buffer (4.25 mL 10% NaCl; 1 mL CaCl2) in 50 mL sterile water), before lead compounds were added at 2 μM, 10 μM and 20 μM, in a final volume of 100 μL. Cells were incubated for 15 minutes at 37° C. before being centrifuged at 5,500 g for 1 minute to pellet non-lysed hRBCs. The supernatant was removed, added to a 96-well Microtiter plate and the OD543 read using a BioTek Synergy2 plate reader. The negative control was vehicle only (DMSO), and the positive control was 1% triton X-100.

CNc1nc(NCc2ccccc2)nc2ccc(Br)cc12 [Compound 4, N^2-Benzyl-6-bromo-N^4-methylquinazoline-2,4-diamine]
MBC (A. baumannii 1649 [1]): 4.7 µM (≈ 1.61 µg/mL) | MBC (A. baumannii 1646 [2]; Acinetobacter baumannii, 1646, strain 1646, Table 8 and text, read-out: MBC90 1646): 0.81 µM (≈ 0.278 µg/mL) | MBC (A. baumannii 1646 [2]; Acinetobacter baumannii, Table 6, representative data for isolate 1646, read-out: MBC90): 0.8 µM (≈ 0.275 µg/mL) | MBEC90 1652 [3]: >100 µM | MIC (A. baumannii 1649 [4]; Table 2, read-out: 1649 MIC): 12 µM (≈ 4.12 µg/mL) | MIC (A. baumannii 1649 [4]; lead quinazolines, Table 8, read-out: MIC 1649): 11 µM (≈ 3.78 µg/mL) | MBEC90 ([5]; Table 6, representative data for isolate 1646): 3.3 µM | reduction in biofilm viability ([5]; at 50 μM, strain 1646): 3.6 log | MBEC90 1646 ([5]; strain 1646, 90% biofilm eradication, Table 8 and text): 3.3 µM | MBEC90 1403 [6]: 26 µM | HepG2 cell viability (human HepG2 cells; at 25 μM (highest concentration tested)): 43% | LD50(HepG2) (human HepG2 cells; human, 48 h): 23 µM | MIC (A. baumannii 1403 [7]; Table 2, read-out: 1403 MIC): 50 µM (≈ 17.2 µg/mL) | MIC (A. baumannii 1403 [7]; lead quinazolines, Table 8, read-out: MIC 1403): 25 µM (≈ 8.58 µg/mL) | MBC (A. baumannii 1403 [8]): 22 µM (≈ 7.55 µg/mL) | MIC (A. baumannii 1646 [9]; Table 6, representative data for isolate 1646, read-out: MIC): 0.5 µM (≈ 0.172 µg/mL) | MIC (A. baumannii 1646 [9]; strain 1646, Table 2, read-out: 1646 MIC): 2 µM (≈ 0.686 µg/mL) | MIC (A. baumannii 1646 [9]; strain 1646, lead quinazolines, Table 8, read-out: MIC 1646): 0.5 µM (≈ 0.172 µg/mL) | MBC (A. baumannii 1652 [10]): 9.7 µM (≈ 3.33 µg/mL) | MBEC90 1650 [11]: 9.61 µM | MBEC90 1649 [12]: 44.33 µM | MIC (A. baumannii 1651 [13]; Table 2, read-out: 1651 MIC): 8 µM (≈ 2.75 µg/mL) | MIC (A. baumannii 1651 [13]; lead quinazolines, Table 8, read-out: MIC 1651): 5 µM (≈ 1.72 µg/mL) | MBEC90 1651 [14]: 37.34 µM | MBC (A. baumannii 1651 [15]): 2.1 µM (≈ 0.721 µg/mL) | MBC (A. baumannii 1650 [16]): 15 µM (≈ 5.15 µg/mL) | MIC (A. baumannii 1652 [17]; Table 2, read-out: 1652 MIC): 20 µM (≈ 6.86 µg/mL) | MIC (A. baumannii 1652 [17]; lead quinazolines, Table 8, read-out: MIC 1652): 20 µM (≈ 6.86 µg/mL) | increase in MIC over the 8-day test period (A. baumannii strain 1403): 4 fold | MIC (A. baumannii 1650 [18]; Table 2, read-out: 1650 MIC): 15 µM (≈ 5.15 µg/mL) | MIC (A. baumannii 1650 [18]; lead quinazolines, Table 8, read-out: MIC 1650): 12 µM (≈ 4.12 µg/mL)

CNc1nc(NCc2ccccc2)nc2ccc(C(C)C)cc12 [Compound 25, N^2-Benzyl-6-isopropyl-N^4-methylquinazoline-2,4-diamine]
concentration giving complete eradication of bacterial growth (A. baumannii 1646 [2]; isolate 1646): 5 µM | MIC (A. baumannii 1649 [4]; Tables 1, 3, 4, 5 and footnotes, read-out: 1649 MIC): 35 µM (≈ 10.7 µg/mL) | MIC (A. baumannii 1403 [7]; Tables 1, 3, 4, 5 and footnotes, read-out: 1403 MIC): > 50 µM | MIC (A. baumannii 1646 [9]; strain 1646, Tables 1, 3, 4, 5 and footnotes, read-out: 1646 MIC): 25 µM (≈ 7.66 µg/mL) | THF concentration sufficient to rescue bacterial growth [19]: 10 µM | MIC (A. baumannii 1651 [13]; Tables 1, 3, 4, 5 and footnotes, read-out: 1651 MIC): 35 µM (≈ 10.7 µg/mL) | MIC (A. baumannii 1652 [17]; Tables 1, 3, 4, 5 and footnotes, read-out: 1652 MIC): > 50 µM | MIC (A. baumannii 1650 [18]; Tables 1, 3, 4, 5 and footnotes, read-out: 1650 MIC): > 50 µM

CN(C)c1cc(NC(=O)CNC(C)(C)C)c(O)c2c1C[C@H]1C[C@H]3[C@H](N(C)C)C(O)=C(C(N)=O)C(=O)[C@@]3(O)C(O)=C1C2=O [tigecycline, reference compound]
survival rate of infected animals (A. baumannii 1646 [20]): 66%

Triton X-100
lysis of human red blood cells (human red blood cells): 100%
